Laboratory results as given in patent publication US20080207447A1, “Cyanopyridine Pesticides” (BASF Aktiengesellschaft, priority 2005, published 2008).

Legend:
Format in all cases: in vivo
[1] = system: Cotton Aphid (Aphis gossypii), mixed life stages; assay: Cotton aphid (Aphis gossypii), mixed life stages, cotyledon dip test; settings: 120 h, infested cotton cotyledons dipped, determined after 5 days, read-out: mortality of cotton aphid in comparison with untreated controls
Description: (§1) The active compounds were formulated in a mixture of 50 vol.-% acetone:50 vol.-% water. A nonionic surfactant (Kinetic®) was included in the solution at a volume of 0.01% v/v.
(§2) In the following tests, the formulated solutions of the active compounds were diluted to an active ingredient concentration of 300 ppm and the diluted solutions were applied in the below mentioned tests.
(§3) II.1 Cotton Aphid (Aphis gossypil), Mixed Life Stages • Cotton plants at the cotyledon stage were infested prior to treatment by placing a heavily infested leaf from the main aphid colony on top of each cotyledon. The aphids were allowed to transfer overnight and the host leaf was removed. The infested cotyledons were then dipped and agitated in the test solution for 3 seconds and allowed to dry in a fume hood. […] Aphid mortality on the treated plants, relative to mortality on untreated check plants, was determined after 5 days. • In this test compounds each of examples 12 to 36, 38, 39, 40 and 41 at 300 ppm provided at least 90% mortality of cotton aphid (Aphis gossypii, mixed life stages) in comparison with untreated controls. […] Aphid mortality on the treated plants, relative to mortality on untreated check plants, was determined after 5 days. • In this test compounds each of examples 12 to 36, 38, 39, 40 and 41 at 300 ppm provided at least 90% mortality of green peach aphidin comparison with untreated controls. […]

[2] = system: Green Peach Aphid (Myzus persicae), mixed life stages; assay: Green peach aphid (Myzus persicae), mixed life stages, bell pepper leaf dip test; settings: foliar, 120 h, infested bell pepper leaves dipped, determined after 5 days, read-out: mortality of green peach aphid in comparison with untreated controls
Description: as §1, §2, §3

[3] = system: Bean Aphid (Aphis fabae); assay: Bean aphid (Aphis fabae), nasturtium plant dip test; settings: 72 h, infested nasturtium plants dipped, determined after 3 days, read-out: mortality of bean aphid in comparison with untreated controls

Measured: mortality at 300 ppm

Cc1cncc(S(=O)(=O)N(C)C)c1C#N [Example 12, 4-Cyano-5-methyl-pyridine-3-sulfonic acid dimethylamide]
≥ 90%: all assays above
